In ChEMBL document CHEMBL1142139, “In vitro-clinical correlations for amphotericin B susceptibility in AIDS-associated cryptococcal meningitis” (2007):

Tested on: Cryptococcus neoformans
Experiment: Antimicrobial activity against Cryptococcus neoformans isolates in CSF from meningitis patients after 14 day iv treatment
Assay type: functional

## C[C@@H]1[C@H](O)[C@@H](C)/C=C/C=C/C=C/C=C/C=C/C=C/C=C/[C@H](O[C@@H]2O[C@H](C)[C@@H](O)[C@H](N)[C@@H]2O)C[C@@H]2O[C@](O)(C[C@@H](O)C[C@@H](O)[C@H](O)CC[C@@H](O)C[C@@H](O)CC(=O)O[C@H]1C)C[C@H](O)[C@H]2C(=O)O [AMPHOTERICIN B]
  CFU/ml: 0
